From patent US8927717B1, “Thiochromeno[2,3-c]quinolin-12-one derivatives, preparation method and application thereof” (National Defense Medical Center, priority 2014, dated 2015)

Columns and labels:
Format in all cases: cell-based
[1] = system: RXF 393
[2] = system: SR
[3] = system: UO-31
[4] = system: HT29
[5] = system: SW-620
[6] = system: HOP-62
[7] = system: MCF7
[8] = system: A549/ATCC
[9] = system: K-562
[10] = system: OVCAR-8
[11] = system: PC-3
[12] = system: NCI-H226
[13] = system: 786-0
[14] = system: SF-295
[15] = system: HS 578T
[16] = system: HCT-15
[17] = system: SN12C
[18] = system: LOX IMVI
[19] = system: MDA-MB-486
[20] = Renal cancer, 10^−5 molar, 48 hours, SRB
[21] = Leukemia, 10^−5 molar, 48 hours, SRB
[22] = Colon cancer, 10^−5 molar, 48 hours, SRB
[23] = Homo sapiens, HT-29, HT29, five dose
[24] = Homo sapiens, SW-620, five dose
[25] = Homo sapiens, HOP-62, five dose
[26] = Non-small cell lung cancer, 10^−5 molar, 48 hours, SRB
[27] = Breast cancer, 10^−5 molar, 48 hours, SRB
[28] = Homo sapiens, A549/ATCC, five dose
[29] = Homo sapiens, NCI-H226, five dose
[30] = Homo sapiens, SF-295, five dose
[31] = Homo sapiens, HCT-15, five dose
[32] = Homo sapiens, LOX IMVI, five dose

## CCNc1nc2ccccc2c2c(=O)c3cc(Cl)ccc3sc12 [Compound N2, 10-Chloro-6-ethylamino-12H-thiochromeno[2,3-c]quinolin-12-one]
[1]; Homo sapiens, RXF 393, five dose
  GI50: 13.1 µM
[1]; Homo sapiens, RXF 393, five dose, read-out: LC50 (the source's name)
  CC50: > 100 µM
[1]; RXF 393, five dose
  TGI: 44.6 µM
[1]; [20]
  Growth percent RXF 393: 34.56%
[2]; Homo sapiens, SR, five dose
  GI50: > 100 µM
  LC50 (50% lethal concentration): > 100 µM
[2]; [21]
  Growth percent SR: 84.32%
[2]; SR, five dose
  TGI: >100 µM
[3]; Homo sapiens, UO-31, five dose
  GI50: 29.4 µM
[3]; Homo sapiens, UO-31, five dose, read-out: LC50 (the source's name)
  CC50: > 100 µM
[3]; [20]
  Growth percent UO-31: 32.06%
[3]; UO-31, five dose
  TGI: >100 µM
[4]; [22]
  Growth percent HT29: 68.21%
[4]; HT29, five dose
  TGI: >100 µM
[4]; [23]
  GI50: > 100 µM
  LC50 (concentration killing 50% of cells): > 100 µM
[5]; [22]
  Growth percent SW-620: 84.65%
[5]; [24]
  GI50: > 100 µM
  LC50: > 100 µM
[5]; SW-620, five dose
  TGI: >100 µM
[6]; HOP-62, five dose
  TGI: 35.20 µM
[6]; [25]
  GI50: 13.3 µM
  LC50 (lethal concentration 50): 93.1 µM
[6]; [26]
  Growth percent HOP-62: 57.49%
[7]; [27]
  Growth percent MCF7 (Table 2: MCF): 17.54%
[7]; Homo sapiens, MCF7, five dose, read-out: LC50 (the source's name)
  CC50: > 100 µM
[7]; MCF7, five dose
  TGI: >100 µM
[8]; A549/ATCC, five dose
  TGI: >100 µM
[8]; [28]
  GI50: 48.1 µM
  LC50: > 100 µM
[8]; [26]
  Growth percent A549/ATCC: 61.84%
[9]; Homo sapiens, K562, K-562, five dose
  GI50: > 100 µM
[9]; Homo sapiens, K562, K-562, five dose, read-out: LC50 (the source's name)
  CC50: > 100 µM
[9]; K-562, five dose
  TGI: >100 µM
[9]; [21]
  Growth percent K-562: 77.52%
[10]; Homo sapiens, OVCAR-8, five dose
  GI50: 17.7 µM
[10]; Homo sapiens, OVCAR-8, five dose, read-out: LC50 (the source's name)
  CC50: > 100 µM
[10]; OVCAR-8, five dose
  TGI: >100 µM
[10]; Ovarian cancer, 10^−5 molar, 48 hours, SRB
  Growth percent OVCAR-8: 62.54%
[11]; Homo sapiens, PC-3, five dose
  GI50: > 100 µM
[11]; Homo sapiens, PC-3, five dose, read-out: LC50 (the source's name)
  CC50: > 100 µM
[11]; PC-3, five dose
  TGI: >100 µM
[11]; Prostate cancer, 10^−5 molar, 48 hours, SRB
  Growth percent PC-3: 77.80%
[12]; [29]
  GI50: 33.2 µM
  LC50 (concentration giving 50% net cell kill): > 100 µM
[12]; NCI-H226, five dose
  TGI: >100 µM
[12]; [26]
  Growth percent NCI-H226: 41.31%
[13]; 786-0, five dose
  TGI: 33.8 µM
[13]; Homo sapiens, 786-0, five dose
  GI50: 10.5 µM
[13]; Homo sapiens, 786-0, five dose, read-out: LC50 (the source's name)
  CC50: > 100 µM
[13]; [20]
  Growth percent 786-0: 23.87%
[14]; CNS cancer, 10^−5 molar, 48 hours, SRB
  Growth percent SF-295: 69.49%
[14]; [30]
  GI50: 12.2 µM
  LC50: > 100 µM
[14]; SF-295, five dose
  TGI: 35.20 µM
[15]; [27]
  Growth percent HS 578T: 36.37%
[15]; HS 578T, five dose
  TGI: 65.5 µM
[15]; Homo sapiens, HS 578T, five dose
  GI50: 9.64 µM
[15]; Homo sapiens, HS 578T, five dose, read-out: LC50 (the source's name)
  CC50: > 100 µM
[16]; [22]
  Growth percent HCT-15: 79.72%
[16]; HCT-15, five dose
  TGI: >100 µM
[16]; [31]
  GI50: > 100 µM
  LC50: > 100 µM
[17]; Homo sapiens, SN12C, five dose
  GI50: 75.3 µM
[17]; Homo sapiens, SN12C, five dose, read-out: LC50 (the source's name)
  CC50: > 100 µM
[17]; [20]
  Growth percent SN12C: 84.57%
[17]; SN12C, five dose
  TGI: >100 µM
[18]; [32]
  GI50: > 100 µM
  LC50: > 100 µM
[18]; LOX IMVI, five dose
  TGI: >100 µM
[18]; Melanoma, 10^−5 molar, 48 hours, SRB
  Growth percent LOX IMVI: 80.61%
[19]; 60 cell, MDA-MB-486, five dose
  GI50: 0.04 µM
[19]; 60 cell, MDA-MB-486, five dose, read-out: LC50 (the source's name)
  CC50: > 100 µM
[19]; [27]
  Growth percent MDA-MB-486: 26.29%
[19]; MDA-MB-486, five dose
  TGI: >100 µM
